In US9073941B2, “Compounds and methods for treating tuberculosis infection” (Academia Sinica, priority 2010, dated 2015):
In brackets after ≈: the same amount, converted by molar mass. Where two headings read alike, the source gives them in different places.

Key:
[1] = test system: Mycobacterium tuberculosis strains H37Rv; experiment: In Vitro Antitubercular H37Rv MIC Assay (resazurin); format: cell-based; conditions: 168 h
[2] = target: lipoamide dehydrogenase (Lpd) (Mycobacterium tuberculosis (strain ATCC 25618 / H37Rv), UniProt P9WHH9); experiment: Lipoamide Dehydrogenase (Lpd) Inhibition Assay; format: biochemical
[3] = target: Mtb PDH (Lpd+DlaT+AceE) (Mycobacterium tuberculosis (strain ATCC 25618 / H37Rv), UniProt P9WHH9); experiment: PDH Inhibition Activity; format: biochemical
[4] = growth of Mycobacterium tuberculosis H37Rv, 7H9 medium, 7 days, tested 8-0.25 μg/mL
[5] = concentration required for 50% inhibition of LPD activity, DTNB detection, OD405 nm
[6] = concentration required for 50% inhibition of PDH activity, fluorescence ex 360 nm / em 460 nm, read-out: PDH IC50
[7] = Mycobacterium tuberculosis, H37RV

| Compound | MIC [1, 4] [µg/mL] | IC50 [2, 5] [nM] | IC50 [3, 6] [nM] | MIC [1, 7] [µg/mL] | IC50 [2] [nM] | IC50 [3] [nM] |
| --- | --- | --- | --- | --- | --- | --- |
| CCOC(=O)/C=C\CBr [(XVI)] | ≤ 0.25 | 2920 ± 880 | 1650 | – | – | – |
| O=C1c2ccccc2C(O)(O)[C@@]1(O)[C@]1(O)C(=O)c2ccccc2C1(O)O [Compound 101] | – | – | 1930 | > 8 | – | – |
| CCOc1ccccc1/C=C1\Cc2ccccc2C1=O [Compound 102] | > 8 | – | 1130 | – | – | – |
| O=C1c2ccccc2-c2nc3nonc3nc21 [Compound 103] | ≤ 0.25 | – | < 40 | – | – | – |
| Nc1c(O)ccc2nsnc12 [Compound 203] | > 8 | – | 3670 | – | – | – |
| C=CCOCc1ccccc1 [Compound 301] | 8 (≈ 54 µM) | – | 760 | – | – | – |
| O=C(OC[C@H]1O[C@H](OC(=O)c2cc(O)c(O)c(OC(=O)c3cc(O)c(O)c(O)c3)c2)[C@H](OC(=O)c2cc(O)c(O)c(OC(=O)c3cc(O)c(O)c(O)c3)c2)[C@@H](OC(=O)c2cc(O)c(O)c(OC(=O)c3cc(O)c(O)c(O)c3)c2)[C@@H]1OC(=O)c1cc(O)c(O)c(OC(=O)c2cc(O)c(O)c(O)c2)c1)c1cc(O)c(O)c(OC(=O)c2cc(O)c(O)c(O)c2)c1 [Compound 302] | > 8 | – | 450 | – | – | – |
| COc1ccc(CCI)cc1 [Compound 303] | 2 (≈ 7.63 µM) | – | < 40 | – | – | – |
| c1ccc2c(c1)ccn1c3ccccc3cc21 [Compound 401] | > 8 | – | 140 | – | – | – |
| COc1ccc(NC(=O)CN(C)S(=O)(=O)c2cc(Br)cnc2N)cc1 [Compound 500] | > 8 | – | – | – | – | – |
| Cc1ccc(CNC(=O)C2CCN(S(=O)(=O)c3cn(C(C)C)cn3)CC2)cc1 [Compound 501] | > 8 | 3050 ± 1050 | 3130 | – | – | – |
| Cn1nc(-c2ccccc2)nc2c(=O)n(C)c(=O)nc1-2 [Compound 601] | – | < 40 | < 40 | > 8 | – | – |
| CCn1nc(-c2ccccc2)nc2c(=O)n(C)c(=O)nc1-2 [Compound 602] | – | – | – | > 8 | 230 ± 20 | < 40 |
| Cn1nc(-c2ccc(Cl)cc2)nc2c(=O)n(C)c(=O)nc1-2 [Compound 603] | > 8 | – | – | – | 100 ± 10 | < 40 |
| Cn1nc(-c2ccc(Cl)c(Cl)c2)nc2c(=O)n(C)c(=O)nc1-2 [Compound 604] | > 8 | – | – | – | 140 ± 10 | < 40 |
| COc1ccc(-c2nc3c(=O)n(C)c(=O)nc-3n(C)n2)cc1 [Compound 605] | 8 (≈ 26.7 µM) | 70 ± 10 | < 40 | – | – | – |
| COc1ccc(-c2nc3c(=O)n(C)c(=O)nc-3n(C)n2)cc1OC [Compound 606] | > 8 | 960 ± 70 | 1440 | – | – | – |
| CCn1nc(-c2ccc(OC)cc2)nc2c(=O)n(C)c(=O)nc1-2 [Compound 607] | 8 (≈ 25.5 µM) | 60 ± 10 | < 40 | – | – | – |
| CCn1nc(-c2cccnc2)nc2c(=O)n(C)c(=O)nc1-2 [Compound 608] | – | – | – | > 8 | 190 ± 30 | < 40 |
| CCn1nc(/C=C/c2ccccc2)nc2c(=O)n(C)c(=O)nc1-2 [Compound 609] | – | < 40 | < 40 | > 8 | – | – |
| CCn1nc(-c2cccs2)nc2c(=O)n(C)c(=O)nc1-2 [Compound 610] | – | < 40 | < 40 | > 8 | – | – |
| Cc1nc2c(=O)n(C)c(=O)nc-2n(C)n1 [Compound 611] | – | 80 ± 10 | < 40 | 4 (≈ 19.3 µM) | – | – |
| CCn1nc(-c2ccccc2C)nc2c(=O)n(C)c(=O)nc1-2 [Compound 613] | – | < 40 | < 40 | – | – | – |
| Cn1nc(-c2ccc([N+](=O)[O-])cc2)nc2c(=O)n(C)c(=O)nc1-2 [Compound 614] | – | < 40 | < 40 | – | – | – |
| CCn1nc(-c2ccccc2Cl)nc2c(=O)n(C)c(=O)nc1-2 [Compound 615] | – | < 40 | < 40 | – | – | – |
| Cn1nc(-c2ccc(F)cc2)nc2c(=O)n(C)c(=O)nc1-2 [Compound 616] | – | – | – | – | < 40 | < 40 |

| Compound | MIC [1, 4] [µg/mL] | IC50 [2, 5] [nM] | IC50 [3, 6] [nM] | MIC [1, 7] [µg/mL] | IC50 [2] [nM] | IC50 [3] [nM] |
| --- | --- | --- | --- | --- | --- | --- |
| CCCc1nc2c(=O)n(C)c(=O)nc-2n(C)n1 [Compound 617] | – | < 40 | < 40 | – | – | – |
| Cc1ccc(-c2nc3c(=O)n(C)c(=O)nc-3n(C)n2)cc1 [Compound 618] | – | – | – | – | < 40 | < 40 |
| Cn1nc(-c2ccc(C(F)(F)F)cc2)nc2c(=O)n(C)c(=O)nc1-2 [Compound 619] | – | < 40 | < 40 | – | – | – |
| CCn1nc(-c2ccc([N+](=O)[O-])cc2)nc2c(=O)n(C)c(=O)nc1-2 [Compound 620] | – | < 40 | < 40 | – | – | – |
| CCn1nc(-c2ccc(C(=O)OC)cc2)nc2c(=O)n(C)c(=O)nc1-2 [Compound 621] | – | < 40 | < 40 | – | – | – |
| CN1N=C(c2ccccc2)Nc2c1nc(O)n(C)c2=O [Compound 701] | – | – | < 40 | > 8 | – | – |
| O=C1C=C(NCc2ccccc2)c2ccccc2C1=O [Compound 901] | 8 (≈ 30.4 µM) | 100 | 4280 | – | – | – |
| Nc1ccc2c(c1)C(=O)C(=O)c1ccccc1-2 [Compound 902] | > 8 | 670 ± 70 | 788 | – | – | – |
| CC1(C)C(=O)N=C2c3ccccc3C(=O)C(=O)C21 (stereo not shown) [Compound 903] | > 8 | 860 ± 80 | 1170 | – | – | – |
| O=C1C(=O)c2cc([N+](=O)[O-])ccc2-c2ccccc21 [Compound 904] | > 8 | 640 ± 50 | 691 | – | – | – |
| O=C1C(=O)c2nn(-c3ccccc3)nc2-c2ccccc21 [Compound 905] | 8 (≈ 29.1 µM) | – | – | – | < 40 | < 40 |
| CC(=O)C(C(C)=O)C1=CC(=O)C(=O)c2ccccc21 [Compound 906] | – | 2150 ± 430 | > 5000 | – | – | – |
| CCCCn1c(NC(=O)c2ccc(Br)o2)c(C#N)c2nc3ccccc3nc21 [Compound 1001] | > 8 | 1080 ± 240 | 954 | – | – | – |
| C=CCn1c(NS(=O)(=O)c2ccccc2)c(C#N)c2nc3ccccc3nc21 [Compound 1002] | > 8 | 980 ± 150 | 3320 | – | – | – |
| CCCCn1c(NC(=O)c2ccccc2)c(C#N)c2nc3ccccc3nc21 [Compound 1003] | – | 520 ± 70 | > 5000 | – | – | – |
| CCC(C)n1c(NC(=O)c2ccccc2)c(C#N)c2nc3ccccc3nc21 (stereo not shown) [Compound 1004] | – | 870 ± 100 | > 5000 | – | – | – |
| CCCCn1c(NS(=O)(=O)c2ccc(C)cc2)c(C#N)c2nc3ccccc3nc21 [Compound 1005] | – | 900 ± 130 | > 5000 | – | – | – |
| CCCCn1c(NC(=O)c2cccs2)c(C#N)c2nc3ccccc3nc21 [Compound 1006] | – | 860 ± 160 | > 5000 | – | – | – |
| CCCCCn1c(NC(=O)c2ccc(Br)o2)c(C#N)c2nc3ccccc3nc21 [Compound 1007] | – | – | – | – | 1360 ± 160 | > 5000 |
| COCCn1c(NC(=O)c2cccc([N+](=O)[O-])c2)c(C#N)c2nc3ccccc3nc21 [Compound 1008] | – | 1050 ± 140 | > 5000 | – | – | – |
| CCC(C)n1c(NC(=O)c2ccc(Br)o2)c(C#N)c2nc3ccccc3nc21 (stereo not shown) [Compound 1009] | – | 1650 ± 230 | > 5000 | – | – | – |
| N#Cc1c(NC(=O)c2ccc(Cl)c([N+](=O)[O-])c2)n(Cc2ccccc2)c2nc3ccccc3nc12 [Compound 1010] | – | – | – | – | > 4000 | > 5000 |
| CCOC(=O)c1c(NS(=O)(=O)c2ccccc2)n(CCCOC)c2nc3ccccc3nc12 [Compound 1011] | – | 1310 ± 160 | > 5000 | – | – | – |
| COCCCn1c(N)c(C(=O)NCCC(C)C)c2nc3ccccc3nc21 [Compound 1012] | – | > 4000 | > 5000 | – | – | – |
| Cn1c(N)c(C(=O)NCc2ccccc2)c2nc3ccccc3nc21 [Compound 1013] | – | > 4000 | > 5000 | – | – | – |
